Measured values: paper PMC3639963, “A New Class of Small Molecule Inhibitor of BMP Signaling” (PLoS ONE, 2013)

What was measured:
[1] = test system: Tg(BRE:mRFP) transgenic zebrafish embryos; test: Dorsalization of zebrafish embryos; format: in vivo; settings: treated from the 8- to 16-cell stage, scored at 26 hours
Experimental: The zebrafish colony was maintained as described and embryos were raised at 28.5°C. The Tg(BRE:mRFP) transgenic line (also called BRE-mRFP) has been described previously and expresses mRFP in response to BMP signaling. […] Inhibitor stocks were diluted in DMSO and then further diluted in fish water to give the required inhibitor concentrations. To minimize the amount of inhibitors used, experiments were performed in 24-well plates with approximately 20 embryos per well in a volume of 1 mL. The chemical treatment was applied by immersing 8- to 16-cell stage Tg(BRE:mRFP) embryos (dorsalization experiment) or 12 hours old […]) embryos (ISV experiment) in the fish water supplemented with DMSO or the chemical inhibitors. For the ISV experiment, embryos were manually dechorionated after bud stage before treatment. Embryos were scored and photographed at 26 or 48 hours.

BRAF = target: T1, BRAF (Homo sapiens, UniProt P15056); test: Nanosyn kinase profiling; format: biochemical; settings: read-out: Percentage inhibition
T1 construct: purchased Nanosyn (enzymatic panel); SGC in-house recombinant human kinases (DSF panel); Invitrogen (ALK1-6)
Experimental: (§1) Percentage inhibition was determined for each kinase at both 0.1 µM and 1 µM inhibitor concentration (supplemental Table S2).
(§2) Inhibitor selectivity profiling against 200 human kinases at 0.1 and 1 µM inhibitor concentration was performed by Nanosyn (www.nanosyn.com).

MAP4K4 = target: T2, MAP4K4 (Homo sapiens, UniProt O95819); test: Nanosyn kinase profiling; format: biochemical; settings: read-out: Percentage inhibition
T2 construct: purchased Nanosyn (enzymatic panel); SGC in-house recombinant human kinases (DSF panel); Invitrogen (ALK1-6)
Experimental: as §1, §2

FMS = target: T3, FMS (Homo sapiens, UniProt P07333); test: Nanosyn kinase profiling; format: biochemical; settings: read-out: Percentage inhibition
T3 construct: purchased Nanosyn (enzymatic panel); SGC in-house recombinant human kinases (DSF panel); Invitrogen (ALK1-6)
Experimental: as §1, §2

FLT3 = target: T4, FLT3 (Homo sapiens, UniProt P36888); test: Nanosyn kinase profiling; format: biochemical; settings: read-out: Percentage inhibition
T4 construct: purchased Nanosyn (enzymatic panel); SGC in-house recombinant human kinases (DSF panel); Invitrogen (ALK1-6)
Experimental: as §1, §2

MINK = target: T5, MINK (Homo sapiens, UniProt Q8N4C8); test: Nanosyn kinase profiling; format: biochemical; settings: read-out: Percentage inhibition
T5 construct: purchased Nanosyn (enzymatic panel); SGC in-house recombinant human kinases (DSF panel); Invitrogen (ALK1-6)
Experimental: as §1, §2

T2 sequence (O95819 whole entry): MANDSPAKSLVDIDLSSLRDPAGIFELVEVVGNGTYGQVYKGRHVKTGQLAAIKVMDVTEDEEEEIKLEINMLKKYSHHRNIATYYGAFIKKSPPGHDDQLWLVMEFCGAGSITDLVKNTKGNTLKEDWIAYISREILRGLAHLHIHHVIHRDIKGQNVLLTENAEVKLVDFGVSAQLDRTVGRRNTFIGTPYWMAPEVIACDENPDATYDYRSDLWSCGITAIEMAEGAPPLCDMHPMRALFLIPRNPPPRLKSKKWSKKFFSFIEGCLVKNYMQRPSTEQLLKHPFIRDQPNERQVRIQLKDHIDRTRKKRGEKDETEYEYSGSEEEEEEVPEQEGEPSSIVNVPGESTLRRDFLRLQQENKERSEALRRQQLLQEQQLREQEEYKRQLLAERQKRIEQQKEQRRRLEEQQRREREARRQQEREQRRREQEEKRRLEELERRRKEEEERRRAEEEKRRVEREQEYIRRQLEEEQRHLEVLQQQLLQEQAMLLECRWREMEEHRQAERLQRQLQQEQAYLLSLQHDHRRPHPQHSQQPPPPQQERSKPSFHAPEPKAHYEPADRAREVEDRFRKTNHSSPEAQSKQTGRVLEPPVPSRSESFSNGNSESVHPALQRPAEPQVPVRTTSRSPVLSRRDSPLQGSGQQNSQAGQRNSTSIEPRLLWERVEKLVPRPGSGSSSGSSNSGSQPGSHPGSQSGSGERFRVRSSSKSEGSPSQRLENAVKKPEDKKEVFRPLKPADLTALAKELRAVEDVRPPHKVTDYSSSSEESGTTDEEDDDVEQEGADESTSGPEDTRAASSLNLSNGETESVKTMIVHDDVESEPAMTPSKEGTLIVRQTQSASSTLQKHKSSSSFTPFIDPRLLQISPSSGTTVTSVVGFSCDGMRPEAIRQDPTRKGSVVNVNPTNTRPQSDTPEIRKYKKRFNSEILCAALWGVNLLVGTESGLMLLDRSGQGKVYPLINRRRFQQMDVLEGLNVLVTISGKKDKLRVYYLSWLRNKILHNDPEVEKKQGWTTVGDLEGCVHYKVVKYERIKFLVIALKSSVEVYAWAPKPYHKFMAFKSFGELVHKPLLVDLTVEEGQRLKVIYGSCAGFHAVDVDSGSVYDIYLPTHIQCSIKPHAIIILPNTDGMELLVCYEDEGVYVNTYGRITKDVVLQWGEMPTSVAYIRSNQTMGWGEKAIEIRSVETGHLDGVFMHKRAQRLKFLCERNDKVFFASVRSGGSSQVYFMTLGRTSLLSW
T5 sequence (Q8N4C8 whole entry): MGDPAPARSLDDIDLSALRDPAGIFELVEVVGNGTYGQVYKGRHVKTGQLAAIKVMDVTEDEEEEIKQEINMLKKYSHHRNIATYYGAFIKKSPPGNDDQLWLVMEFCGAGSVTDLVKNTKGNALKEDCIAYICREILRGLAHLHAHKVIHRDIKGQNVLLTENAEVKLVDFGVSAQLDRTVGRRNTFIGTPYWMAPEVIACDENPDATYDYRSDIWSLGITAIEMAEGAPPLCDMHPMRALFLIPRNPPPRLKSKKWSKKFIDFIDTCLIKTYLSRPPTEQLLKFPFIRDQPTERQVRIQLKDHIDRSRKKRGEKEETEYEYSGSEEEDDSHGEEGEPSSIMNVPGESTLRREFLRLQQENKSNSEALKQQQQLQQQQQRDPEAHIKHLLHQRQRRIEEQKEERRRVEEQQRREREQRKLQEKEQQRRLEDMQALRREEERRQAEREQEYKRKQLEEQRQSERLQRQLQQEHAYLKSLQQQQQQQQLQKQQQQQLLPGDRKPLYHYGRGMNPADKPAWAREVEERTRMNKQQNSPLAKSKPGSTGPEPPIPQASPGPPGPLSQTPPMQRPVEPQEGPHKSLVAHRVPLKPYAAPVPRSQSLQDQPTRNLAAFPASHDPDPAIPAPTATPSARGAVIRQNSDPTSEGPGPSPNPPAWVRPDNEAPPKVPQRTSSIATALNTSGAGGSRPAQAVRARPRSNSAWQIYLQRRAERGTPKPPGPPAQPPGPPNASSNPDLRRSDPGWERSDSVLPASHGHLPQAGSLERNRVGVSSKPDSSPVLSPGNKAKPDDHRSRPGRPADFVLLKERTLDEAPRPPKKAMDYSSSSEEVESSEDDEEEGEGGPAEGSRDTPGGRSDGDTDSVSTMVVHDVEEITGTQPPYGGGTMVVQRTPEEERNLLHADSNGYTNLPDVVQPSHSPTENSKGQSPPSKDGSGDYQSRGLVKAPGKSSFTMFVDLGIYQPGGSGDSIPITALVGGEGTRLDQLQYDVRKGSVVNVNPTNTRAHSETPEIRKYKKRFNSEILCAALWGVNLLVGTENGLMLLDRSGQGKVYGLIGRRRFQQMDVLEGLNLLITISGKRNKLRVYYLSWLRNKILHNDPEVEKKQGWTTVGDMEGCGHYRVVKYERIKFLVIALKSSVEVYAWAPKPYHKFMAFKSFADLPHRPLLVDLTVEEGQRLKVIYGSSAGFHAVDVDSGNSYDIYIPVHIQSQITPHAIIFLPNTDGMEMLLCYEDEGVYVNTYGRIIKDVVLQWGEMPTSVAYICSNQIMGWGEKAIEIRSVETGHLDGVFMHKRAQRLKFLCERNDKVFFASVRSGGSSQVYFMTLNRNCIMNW
T1 sequence (P15056 whole entry): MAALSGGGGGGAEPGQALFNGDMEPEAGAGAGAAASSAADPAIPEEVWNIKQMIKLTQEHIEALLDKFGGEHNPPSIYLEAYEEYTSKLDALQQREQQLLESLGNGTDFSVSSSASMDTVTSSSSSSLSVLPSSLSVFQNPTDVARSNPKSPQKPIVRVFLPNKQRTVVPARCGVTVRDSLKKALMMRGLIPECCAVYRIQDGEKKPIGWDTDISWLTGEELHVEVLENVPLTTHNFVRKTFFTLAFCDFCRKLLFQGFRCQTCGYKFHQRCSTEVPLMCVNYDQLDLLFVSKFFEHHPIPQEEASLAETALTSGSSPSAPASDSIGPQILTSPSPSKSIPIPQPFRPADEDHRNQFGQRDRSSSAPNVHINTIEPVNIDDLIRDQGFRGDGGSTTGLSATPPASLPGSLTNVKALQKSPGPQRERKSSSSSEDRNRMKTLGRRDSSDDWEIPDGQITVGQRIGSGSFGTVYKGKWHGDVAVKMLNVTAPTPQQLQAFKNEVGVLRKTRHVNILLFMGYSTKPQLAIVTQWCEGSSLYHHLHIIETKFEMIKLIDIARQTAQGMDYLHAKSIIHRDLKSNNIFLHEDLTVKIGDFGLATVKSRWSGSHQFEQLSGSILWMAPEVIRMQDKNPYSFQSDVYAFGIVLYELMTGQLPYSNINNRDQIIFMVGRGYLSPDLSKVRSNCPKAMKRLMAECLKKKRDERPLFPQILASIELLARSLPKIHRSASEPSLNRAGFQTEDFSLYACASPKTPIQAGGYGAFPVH
T4 sequence (P36888 27-993): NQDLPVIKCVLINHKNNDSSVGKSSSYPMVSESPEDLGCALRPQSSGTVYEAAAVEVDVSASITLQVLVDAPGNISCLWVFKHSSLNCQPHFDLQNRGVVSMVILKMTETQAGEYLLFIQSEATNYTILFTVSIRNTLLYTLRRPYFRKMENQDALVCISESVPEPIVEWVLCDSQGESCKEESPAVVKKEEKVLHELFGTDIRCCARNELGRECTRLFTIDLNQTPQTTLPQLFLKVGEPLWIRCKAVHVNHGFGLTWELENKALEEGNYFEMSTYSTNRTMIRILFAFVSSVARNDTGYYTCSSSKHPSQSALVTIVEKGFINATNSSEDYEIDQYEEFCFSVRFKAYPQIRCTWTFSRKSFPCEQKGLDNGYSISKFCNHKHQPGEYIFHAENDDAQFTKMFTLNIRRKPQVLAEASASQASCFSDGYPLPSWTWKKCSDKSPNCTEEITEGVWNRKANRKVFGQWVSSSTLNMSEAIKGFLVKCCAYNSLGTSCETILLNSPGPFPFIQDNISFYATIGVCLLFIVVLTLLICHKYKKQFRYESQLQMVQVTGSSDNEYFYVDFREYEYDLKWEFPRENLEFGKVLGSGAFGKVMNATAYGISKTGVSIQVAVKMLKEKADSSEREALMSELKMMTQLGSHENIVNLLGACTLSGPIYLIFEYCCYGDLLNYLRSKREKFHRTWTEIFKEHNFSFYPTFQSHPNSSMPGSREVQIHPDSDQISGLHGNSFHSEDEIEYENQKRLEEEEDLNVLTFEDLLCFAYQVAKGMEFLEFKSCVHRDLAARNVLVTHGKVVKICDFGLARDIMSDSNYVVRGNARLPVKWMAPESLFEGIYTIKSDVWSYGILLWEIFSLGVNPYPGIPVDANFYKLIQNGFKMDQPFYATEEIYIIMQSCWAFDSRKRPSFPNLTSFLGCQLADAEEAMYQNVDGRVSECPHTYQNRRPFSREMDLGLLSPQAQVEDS

inhibition at 0.1 µM (BRAF; 0.1 µM inhibitor): 0% | inhibition at 1 µM (BRAF; 1 µM inhibitor): 12% | inhibition at 0.1 µM (MAP4K4; 0.1 µM inhibitor): 46% | inhibition at 1 µM (MAP4K4; 1 µM inhibitor): 89% | inhibition at 0.1 µM (FMS; 0.1 µM inhibitor): 6.1% | inhibition at 1 µM (FMS; 1 µM inhibitor): 33% | inhibition at 0.1 µM (FLT3; 0.1 µM inhibitor): -2% | inhibition at 1 µM (FLT3; 1 µM inhibitor): 0.4% | inhibition at 0.1 µM (MINK; 0.1 µM inhibitor): 36% | inhibition at 1 µM (MINK; 1 µM inhibitor): 86%
SMILES: COc1cc(-c2cc(-c3cccc(O)c3)cnc2N)cc(OC)c1OC [K02288, 3-[6-amino-5-(3,4,5-trimethoxy-phenyl)-pyridin-3-yl]-phenol]
concentration giving severely dorsalized phenotype [1]: 8 to 10 µM
